# Reference: patent EP3334759B1, “LACTOFERRIN FRAGMENT FOR THE USE AS ANTIBACTERIAL AND ANTIVIRAL AGENT” (Farmagens Health Care Srl, priority 2015, dated 2019)
# Peptide text beside a SMILES is read from it.
# Assays:
# Vero cell line = assay type: cell-based, Cercopithecus aethiops
# Experimental: MTT assay: cells of Vero cell line (ATCC CRL-1586™ kidney epithelial cells of Cercopithecus aethiops) were cultivated at the appropriate growth conditions as recommended by the supplier in 96-well plates at a concentration of 2 × 10^4 cells/well and treated with the peptides according to the invention at different concentrations diluted in growth medium (1, 5, 10, 20, 50, 100, 250 mM) for 3, 10 and 24 hours. Subsequently, the medium was aspirated and the cells incubated at 37 °C for 3 hours with 10 µl of MTT (bromide of 3-(4,5-dimethylthiazol-2-yl)-2,5-diphenyltetrazolium), a vital dye able to enter the mitochondria and be metabolized by succinate dehydrogenase complex to formazan salts, determining a violet coloration in those cells. Afterward, the supernatant was discharged and isopropanol (100 uL) was added to each well to dissolve the produced salts. The reaction was allowed to proceed by incubation at room temperature in tilting agitation for 20 minutes, then spectrophotometric reading was performed at 570nm to assess cell viability in terms of proliferative inhibition and cell growth.
# Human red blood cells = assay type: cell-based
# Experimental: Human red blood cells from healthy donors have been isolated and used to performed the hemolytic assay. The peptide fragments of lactoferrin of SEQ ID No. 1 and SEQ ID No. 2 at different concentrations (1, 5, 10, 20, 50, 100, 250 mM) were added to the suspension of erythrocytes to a final volume of 100 µl. Samples were incubated under stirring at 37 °C for 60 min. The hemoglobin release was monitored by measuring the absorbance (Abs) of the supernatant at 540 nm. As negative control, i.e. zero hemolysis (blank), red cells resuspended in PBS were used, whereas completely lysed erythrocytes were used as a positive control for 100% hemolysis. The percentage of hemolysis was calculated using the following equation: % Hemolysis = [(SampleAbs−negativecontrolAbs)/(positivecontrolAbs−negativecontrolAbs)] × 100. [formula]
Compound,"toxicity, measured as a function of cellular integrity (Vero cell line)",toxicity towards the erythrocytes (hemolysis) (Human red blood cells)
CC(C)C[C@H](NC(=O)[C@H](CCC(N)=O)NC(=O)[C@H](Cc1ccccc1)NC(=O)[C@H](CO)NC(=O)[C@H](CCCNC(=N)N)NC(=O)[C@H](CO)NC(=O)[C@H](CCCCN)NC(=O)[C@H](CC(N)=O)NC(=O)[C@H](CCCCN)NC(=O)CNC(=O)[C@H](Cc1ccccc1)NC(=O)[C@@H](N)CCCCN)C(=O)N[C@@H](Cc1ccccc1)C(=O)NCC(=O)N[C@@H](CO)C(=O)N1CCC[C@H]1C(=O)N1CCC[C@H]1C(=O)NCC(=O)N[C@@H](CCC(N)=O)C(=O)N[C@@H](CCCNC(=N)N)C(=O)N[C@@H](CC(=O)O)C(=O)N[C@@H](CC(C)C)C(=O)N[C@@H](CC(C)C)C(=O)N[C@@H](Cc1ccccc1)C(=O)N[C@@H](CCCCN)C(=O)N[C@@H](CC(=O)O)C(=O)O [SEQ ID No. 1] (H-KFGKNKSRSFQLFGSPPGQRDLLFKD-OH),≤ 20%,not toxic
CC(C)C[C@H](NC(=O)CNC(=O)[C@H](CS)NC(=O)[C@H](CCCCN)NC(=O)CNC(=O)[C@H](C)NC(=O)[C@@H](NC(=O)[C@@H](N)Cc1ccc(O)cc1)[C@@H](C)O)C(=O)N[C@H](C(=O)N1CCC[C@H]1C(=O)N[C@H](C(=O)N[C@@H](CC(C)C)C(=O)N[C@@H](C)C(=O)N[C@@H](CCC(=O)O)C(=O)N[C@@H](CC(N)=O)C(=O)N[C@@H](CCCNC(=N)N)C(=O)N[C@@H](CCCCN)C(=O)N[C@H](C(=O)N[C@@H](CO)C(=O)N[C@@H](CCCCN)C(=O)N[C@@H](Cc1ccc(O)cc1)C(=O)N[C@@H](CO)C(=O)N[C@@H](CO)C(=O)N[C@@H](CC(C)C)C(=O)N[C@@H](CC(=O)O)C(=O)N[C@@H](CS)C(=O)N[C@H](C(=O)N[C@@H](CC(C)C)C(=O)N[C@@H](CCCNC(=N)N)C(=O)N1CCC[C@H]1C(=O)O)C(C)C)[C@@H](C)O)C(C)C)C(C)C [SEQ ID No. 2] (H-YTAGKCGLVPVLAENRKTSKYSSLDCVLRP-OH),≤ 20%,not toxic
